Results taken from ChEMBL document CHEMBL6114965, “Novel dual-targeting PROTAC degraders of GSK-3β and CDK5: A promising approach for pancreatic cancer treatment” (Bioorg Med Chem, 2025).
pIC50: −log10 of the molar value. Calls of active or inactive are those of the source. No cut-off for these calls is given here.

Key:
PANC-1 = experiment: Antiproliferative activity against human PANC-1 cells assessed as inhibition of cell viability by MTT assay; assay type: functional, cell-based
MIA PaCa-2 = experiment: Antiproliferative activity against human MIA PaCa-2 cells assessed as inhibition of cell viability by MTT assay; assay type: functional, cell-based
BXPC-3 = experiment: Antiproliferative activity against human BXPC-3 cells assessed as inhibition of cell viability by MTT assay; assay type: functional, cell-based
ASPC1 = experiment: Antiproliferative activity against human ASPC1 cells assessed as inhibition of cell viability by MTT assay; assay type: functional, cell-based
[1] = molecular target: T1, Protein cereblon/Glycogen synthase kinase-3 beta (Homo sapiens, UniProt P49841+Q96SW2); experiment: PROTAC activity at CRBN/GSK3beta in human PANC-1 cells assessed as induction of GSK3beta degradation at 0.5 to 2.8 uM incubated for 10 hrs in presence of MG132 by Western blot analysis; assay type: cell-based; details: dose 0.5-2.8 µM
Target sequence in this assay (P49841 whole entry, looked up): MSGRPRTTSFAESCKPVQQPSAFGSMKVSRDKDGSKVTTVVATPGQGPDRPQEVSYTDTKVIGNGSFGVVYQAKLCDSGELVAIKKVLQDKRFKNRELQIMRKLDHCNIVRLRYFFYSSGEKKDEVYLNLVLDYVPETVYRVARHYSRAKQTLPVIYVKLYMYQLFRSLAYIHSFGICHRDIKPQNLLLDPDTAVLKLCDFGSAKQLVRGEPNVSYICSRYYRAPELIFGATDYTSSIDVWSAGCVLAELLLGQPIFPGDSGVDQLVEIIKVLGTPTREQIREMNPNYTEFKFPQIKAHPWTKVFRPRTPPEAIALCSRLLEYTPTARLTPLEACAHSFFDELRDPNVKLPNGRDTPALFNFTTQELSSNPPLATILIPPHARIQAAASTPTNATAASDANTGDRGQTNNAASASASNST
Target sequence in this assay (Q96SW2 whole entry, looked up): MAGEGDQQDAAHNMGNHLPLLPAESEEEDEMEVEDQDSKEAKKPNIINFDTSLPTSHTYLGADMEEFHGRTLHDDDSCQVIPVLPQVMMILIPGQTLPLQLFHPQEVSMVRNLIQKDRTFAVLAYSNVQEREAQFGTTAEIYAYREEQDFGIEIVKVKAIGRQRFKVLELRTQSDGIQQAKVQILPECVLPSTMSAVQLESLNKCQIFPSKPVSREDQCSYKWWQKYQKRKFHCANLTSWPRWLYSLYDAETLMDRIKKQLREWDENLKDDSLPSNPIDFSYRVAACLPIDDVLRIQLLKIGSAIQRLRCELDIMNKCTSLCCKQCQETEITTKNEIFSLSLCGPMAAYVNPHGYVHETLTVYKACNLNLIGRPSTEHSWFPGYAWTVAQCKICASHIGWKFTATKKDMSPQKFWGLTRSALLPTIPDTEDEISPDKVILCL

[2] = molecular target: T2, Protein cereblon/Cyclin-dependent kinase 5 (Homo sapiens, UniProt Q00535+Q96SW2); experiment: PROTAC activity at CRBN/CDK5 in human PANC-1 cells assessed as induction of CDK5 degradation at 0.5 to 2.8 uM incubated for 10 hrs in presence of MG132 by Western blot analysis; assay type: cell-based; details: dose 0.5-2.8 µM
Target sequence in this assay (Q00535 whole entry, looked up): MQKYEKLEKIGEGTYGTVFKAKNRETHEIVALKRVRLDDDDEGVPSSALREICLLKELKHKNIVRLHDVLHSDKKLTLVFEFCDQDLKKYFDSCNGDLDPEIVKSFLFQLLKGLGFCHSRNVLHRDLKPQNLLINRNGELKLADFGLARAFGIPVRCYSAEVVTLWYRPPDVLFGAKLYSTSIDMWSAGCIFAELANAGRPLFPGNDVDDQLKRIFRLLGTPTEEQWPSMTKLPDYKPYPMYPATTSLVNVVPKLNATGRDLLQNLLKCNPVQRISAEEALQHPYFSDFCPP
Target sequence in this assay (Q96SW2 whole entry, looked up): as the sequence (Q96SW2 whole entry, looked up) above

[3] = molecular target: T1, Protein cereblon/Glycogen synthase kinase-3 beta; experiment: PROTAC activity at CRBN/GSK3beta in human PANC-1 cells assessed as induction of GSK3beta degradation at 1 to 2.8 uM incubated for 10 hrs by Western blot analysis; assay type: cell-based; details: dose 1-2.8 µM
Target sequence in this assay (P49841 whole entry, looked up): as the sequence (P49841 whole entry, looked up) above
Target sequence in this assay (Q96SW2 whole entry, looked up): as the sequence (Q96SW2 whole entry, looked up) above

[4] = molecular target: T2, Protein cereblon/Cyclin-dependent kinase 5; experiment: PROTAC activity at CRBN/CDK5 in human PANC-1 cells assessed as induction of CDK5 degradation at 1 to 2.8 uM incubated for 10 hrs by Western blot analysis; assay type: cell-based; details: dose 1-2.8 µM
Target sequence in this assay (Q00535 whole entry, looked up): as the sequence (Q00535 whole entry, looked up) above
Target sequence in this assay (Q96SW2 whole entry, looked up): as the sequence (Q96SW2 whole entry, looked up) above

[5] = molecular target: T1, Protein cereblon/Glycogen synthase kinase-3 beta; experiment: PROTAC activity at CRBN/GSK3beta in human PANC-1 cells assessed as induction of GSK3beta degradation by target engagement binding based cell-ELISA
Target sequence in this assay (P49841 whole entry): as the sequence (P49841 whole entry, looked up) above
Target sequence in this assay (Q96SW2 whole entry): as the sequence (Q96SW2 whole entry, looked up) above

[6] = molecular target: T1, Protein cereblon/Glycogen synthase kinase-3 beta; experiment: PROTAC activity at CRBN/GSK3beta in human PANC-1 cells assessed as induction of GSK3beta degradation by measuring maximal efficacy by target engagement binding based cell-ELISA relative to control
Target sequence in this assay (P49841 whole entry, looked up): as the sequence (P49841 whole entry, looked up) above
Target sequence in this assay (Q96SW2 whole entry, looked up): as the sequence (Q96SW2 whole entry, looked up) above

[7] = molecular target: T2, Protein cereblon/Cyclin-dependent kinase 5; experiment: PROTAC activity at CRBN/CDK5 in human PANC-1 cells assessed as induction of CDK5 degradation by target engagement binding based cell-ELISA
Target sequence in this assay (Q00535 whole entry): as the sequence (Q00535 whole entry, looked up) above
Target sequence in this assay (Q96SW2 whole entry): as the sequence (Q96SW2 whole entry, looked up) above

[8] = molecular target: T2, Protein cereblon/Cyclin-dependent kinase 5; experiment: PROTAC activity at CRBN/CDK5 in human PANC-1 cells assessed as induction of CDK5 degradation by measuring maximal efficacy by target engagement binding based cell-ELISA relative to control
Target sequence in this assay (Q00535 whole entry, looked up): as the sequence (Q00535 whole entry, looked up) above
Target sequence in this assay (Q96SW2 whole entry, looked up): as the sequence (Q96SW2 whole entry, looked up) above

[9] = Permeability of compound in PBS at pH 7.4 at 500 uM incubated for 4 hrs by UV spectrophotometry based PAMPA; assay type: ADME; details: read-out: permeability
Cytochrome P450 1A2 = molecular target: T3, Cytochrome P450 1A2 (Homo sapiens, UniProt P05177); experiment: Inhibition of CYP1A2 (unknown origin) using phenacetin as substrate […]; assay type: ADME
T3 sequence (P05177 whole entry): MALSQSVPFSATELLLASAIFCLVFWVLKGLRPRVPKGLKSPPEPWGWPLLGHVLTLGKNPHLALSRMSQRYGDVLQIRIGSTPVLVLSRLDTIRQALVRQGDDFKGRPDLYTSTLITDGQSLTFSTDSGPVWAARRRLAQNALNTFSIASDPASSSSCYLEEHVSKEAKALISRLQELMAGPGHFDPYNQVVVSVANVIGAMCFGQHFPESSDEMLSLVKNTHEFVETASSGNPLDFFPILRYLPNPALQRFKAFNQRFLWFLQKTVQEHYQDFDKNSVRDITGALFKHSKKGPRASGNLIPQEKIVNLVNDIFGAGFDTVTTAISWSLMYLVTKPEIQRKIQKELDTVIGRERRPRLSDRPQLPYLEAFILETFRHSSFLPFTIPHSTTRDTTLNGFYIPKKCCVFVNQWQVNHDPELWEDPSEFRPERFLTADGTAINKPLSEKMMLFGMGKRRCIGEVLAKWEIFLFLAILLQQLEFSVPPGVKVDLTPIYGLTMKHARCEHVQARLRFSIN

Cytochrome P450 2B6 = molecular target: T4, Cytochrome P450 2B6 (Homo sapiens, UniProt P20813); experiment: Inhibition of CYP2B6 (unknown origin) using bupropion as substrate […]; assay type: ADME
T4 sequence (P20813 whole entry): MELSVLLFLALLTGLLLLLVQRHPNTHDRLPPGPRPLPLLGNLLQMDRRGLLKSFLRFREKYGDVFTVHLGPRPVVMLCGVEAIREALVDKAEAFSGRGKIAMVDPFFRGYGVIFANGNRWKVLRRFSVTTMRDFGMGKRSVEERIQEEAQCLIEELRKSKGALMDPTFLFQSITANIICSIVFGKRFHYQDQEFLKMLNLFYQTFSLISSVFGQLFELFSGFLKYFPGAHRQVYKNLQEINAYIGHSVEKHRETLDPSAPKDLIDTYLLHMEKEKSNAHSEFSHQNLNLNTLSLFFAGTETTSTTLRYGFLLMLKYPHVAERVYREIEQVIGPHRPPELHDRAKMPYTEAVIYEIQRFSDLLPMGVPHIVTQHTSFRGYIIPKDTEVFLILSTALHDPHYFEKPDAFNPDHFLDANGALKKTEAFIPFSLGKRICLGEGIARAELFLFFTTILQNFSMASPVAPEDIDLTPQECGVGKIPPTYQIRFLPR

Cytochrome P450 2C8 = molecular target: T5, Cytochrome P450 2C8 (Homo sapiens, UniProt P10632); experiment: Inhibition of CYP2C8 (unknown origin) using amodiaquine as substrate […]; assay type: ADME
T5 sequence (P10632 whole entry): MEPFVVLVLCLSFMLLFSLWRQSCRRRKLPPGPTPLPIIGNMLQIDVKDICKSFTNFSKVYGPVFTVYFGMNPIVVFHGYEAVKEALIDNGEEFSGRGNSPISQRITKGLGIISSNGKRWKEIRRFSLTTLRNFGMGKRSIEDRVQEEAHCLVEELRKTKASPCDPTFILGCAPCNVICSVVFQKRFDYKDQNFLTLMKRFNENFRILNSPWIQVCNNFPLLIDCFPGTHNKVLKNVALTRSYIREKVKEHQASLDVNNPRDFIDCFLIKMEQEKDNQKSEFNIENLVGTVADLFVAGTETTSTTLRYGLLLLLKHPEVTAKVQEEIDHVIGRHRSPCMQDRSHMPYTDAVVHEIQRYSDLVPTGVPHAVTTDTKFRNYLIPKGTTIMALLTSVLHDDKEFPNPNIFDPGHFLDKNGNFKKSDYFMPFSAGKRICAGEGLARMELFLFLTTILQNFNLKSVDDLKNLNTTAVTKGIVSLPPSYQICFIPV

Cytochrome P450 2C9 = Cytochrome P450 2C9 (Homo sapiens, UniProt P11712); experiment: Inhibition of CYP2C9 (unknown origin) using diclofenac as substrate […]; assay type: ADME
Cytochrome P450 2C19 = Cytochrome P450 2C19 (Homo sapiens, UniProt P33261); experiment: Inhibition of CYP2C19 (unknown origin) using s-mephenytoin as substrate […]; assay type: ADME
Cytochrome P450 2D6 = Cytochrome P450 2D6 (Homo sapiens, UniProt P10635); experiment: Inhibition of CYP2D6 (unknown origin) using dextromethorphan as substrate […]; assay type: ADME
Cytochrome P450 3A4 [10] = molecular target: T6, Cytochrome P450 3A4 (Homo sapiens, UniProt P08684); experiment: Inhibition of CYP3A4 (unknown origin) using midazolam as substrate […]; assay type: ADME
Cytochrome P450 3A4 [11] = molecular target: T6, Cytochrome P450 3A4; experiment: Inhibition of CYP3A4 (unknown origin) using testosterone as substrate […]; assay type: ADME
[12] = Metabolic stability in pooled human liver microsomes assessed as half-life at 100 uM measured upto 120 mins by LC-MS/MS analysis; assay type: ADME, Microsome
[13] = Cytotoxicity against human HepG2 cells; assay type: toxicity, cell-based
[14] = Cytotoxicity against human A549 cells; assay type: toxicity, cell-based
[15] = Cmax in mouse at 5 mg/kg, po; assay type: ADME, organism-based; details: in vivo
[16] = AUC in mouse at 5 mg/kg, po; assay type: ADME, organism-based; details: in vivo
[17] = Half-life in mouse at 5 mg/kg, po; assay type: ADME, organism-based; details: in vivo
[18] = Tmax in mouse at 5 mg/kg, po; assay type: ADME, organism-based; details: in vivo
[19] = Observed clearance in mouse at 5 mg/kg, po; assay type: ADME, organism-based; details: in vivo
[20] = Oral bioavailability in mouse at 5 mg/kg; assay type: ADME, organism-based; details: in vivo
[21] = Cmax in mouse at 5 mg/kg, iv; assay type: ADME, organism-based; details: in vivo
[22] = AUC in mouse at 5 mg/kg, iv; assay type: ADME, organism-based; details: in vivo
[23] = Half-life in mouse at 5 mg/kg, iv; assay type: ADME, organism-based; details: in vivo
[24] = Tmax in mouse at 5 mg/kg, iv; assay type: ADME, organism-based; details: in vivo
[25] = Bioavailability in mouse at 5 mg/kg, […]; assay type: ADME, organism-based; details: in vivo

T6 sequence (P08684 whole entry): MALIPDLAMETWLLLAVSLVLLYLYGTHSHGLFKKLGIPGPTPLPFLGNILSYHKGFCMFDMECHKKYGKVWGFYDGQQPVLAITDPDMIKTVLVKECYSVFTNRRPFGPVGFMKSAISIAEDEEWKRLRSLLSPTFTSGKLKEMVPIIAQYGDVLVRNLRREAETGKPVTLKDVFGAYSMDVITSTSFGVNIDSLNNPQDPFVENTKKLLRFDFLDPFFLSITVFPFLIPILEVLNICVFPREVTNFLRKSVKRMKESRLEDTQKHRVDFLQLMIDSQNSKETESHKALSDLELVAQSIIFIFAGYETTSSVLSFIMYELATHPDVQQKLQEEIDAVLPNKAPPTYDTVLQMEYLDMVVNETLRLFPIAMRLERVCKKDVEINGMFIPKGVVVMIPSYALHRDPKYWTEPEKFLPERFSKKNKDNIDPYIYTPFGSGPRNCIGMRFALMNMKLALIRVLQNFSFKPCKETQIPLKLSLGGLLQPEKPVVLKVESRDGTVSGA
Chain of Cytochrome P450 2C9 (P11712 whole entry): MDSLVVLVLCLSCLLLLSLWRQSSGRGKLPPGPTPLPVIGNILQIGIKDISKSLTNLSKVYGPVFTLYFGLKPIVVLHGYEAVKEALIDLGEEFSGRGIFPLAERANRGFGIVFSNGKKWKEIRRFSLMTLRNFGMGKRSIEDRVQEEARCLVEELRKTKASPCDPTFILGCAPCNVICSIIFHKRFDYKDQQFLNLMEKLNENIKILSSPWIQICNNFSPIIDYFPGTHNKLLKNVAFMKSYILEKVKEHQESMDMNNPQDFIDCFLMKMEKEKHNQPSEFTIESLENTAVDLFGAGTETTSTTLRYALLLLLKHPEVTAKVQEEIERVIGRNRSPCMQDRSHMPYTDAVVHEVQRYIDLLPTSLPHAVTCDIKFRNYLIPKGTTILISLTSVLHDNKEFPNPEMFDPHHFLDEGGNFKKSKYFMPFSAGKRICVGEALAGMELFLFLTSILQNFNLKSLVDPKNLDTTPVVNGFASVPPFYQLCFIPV
Chain of Cytochrome P450 2D6 (P10635 whole entry): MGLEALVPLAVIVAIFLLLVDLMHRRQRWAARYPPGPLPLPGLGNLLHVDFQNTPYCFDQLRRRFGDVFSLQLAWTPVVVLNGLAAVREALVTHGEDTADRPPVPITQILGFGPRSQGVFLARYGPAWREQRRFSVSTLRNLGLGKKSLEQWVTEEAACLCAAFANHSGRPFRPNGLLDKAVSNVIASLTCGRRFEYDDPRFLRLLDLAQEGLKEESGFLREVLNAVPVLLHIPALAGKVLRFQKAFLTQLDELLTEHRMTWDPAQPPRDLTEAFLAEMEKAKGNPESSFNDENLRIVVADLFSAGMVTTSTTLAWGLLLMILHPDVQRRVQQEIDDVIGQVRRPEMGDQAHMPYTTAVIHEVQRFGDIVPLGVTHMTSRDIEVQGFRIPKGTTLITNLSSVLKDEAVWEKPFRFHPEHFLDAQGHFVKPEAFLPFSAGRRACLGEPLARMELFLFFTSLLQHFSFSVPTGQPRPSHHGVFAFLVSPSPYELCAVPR
Chain of Cytochrome P450 2C19 (P33261 whole entry): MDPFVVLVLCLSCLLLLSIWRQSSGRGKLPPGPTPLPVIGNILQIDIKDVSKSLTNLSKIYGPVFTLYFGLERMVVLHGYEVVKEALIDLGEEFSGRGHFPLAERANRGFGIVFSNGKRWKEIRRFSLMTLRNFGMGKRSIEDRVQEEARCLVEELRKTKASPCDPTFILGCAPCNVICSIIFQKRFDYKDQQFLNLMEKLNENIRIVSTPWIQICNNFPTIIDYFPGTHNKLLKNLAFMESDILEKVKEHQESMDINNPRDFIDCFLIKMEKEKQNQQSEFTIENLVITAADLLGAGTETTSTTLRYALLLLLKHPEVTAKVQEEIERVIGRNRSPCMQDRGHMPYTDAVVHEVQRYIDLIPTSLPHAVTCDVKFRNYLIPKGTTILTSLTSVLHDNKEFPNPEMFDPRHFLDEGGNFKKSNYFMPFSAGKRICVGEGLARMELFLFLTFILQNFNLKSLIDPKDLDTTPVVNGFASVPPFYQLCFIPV

Question: Which results are given for `O=C1CCC(N2C(=O)c3cccc(NCCCCCn4cc(CN5CCN(CCCn6cc(C7=C(c8c[nH]c9ccccc89)C(=O)NC7=O)c7ccccc76)CC5)nn4)c3C2=O)C(=O)N1` (stereo not given)?
Answer: pIC50 (PANC-1): 5.74; pIC50 (MIA PaCa-2): 5.67; pIC50 (BXPC-3): 5.53; pIC50 (ASPC1): 5.71; Activity [1]: inactive; Activity [2]: inactive; Activity [3]: Active; Activity [4]: Active; DC50 [5]: 0.042 µM; Emax [6]: 90%; DC50 [7]: 0.048 µM; Emax [8]: 88%; Papp at 4 h, 500 µM [9]: 79.9 ×10⁻⁶ cm/s; pIC50 (Cytochrome P450 1A2): 4.26; pIC50 (Cytochrome P450 2B6): 4.34; pIC50 (Cytochrome P450 2C8): < 4.00; pIC50 (Cytochrome P450 2C9): 4.48; pIC50 (Cytochrome P450 2C19): 4.34; pIC50 (Cytochrome P450 2D6): 4.34; pIC50 (Cytochrome P450 3A4 [10]): 4.41; pIC50 (Cytochrome P450 3A4 [11]): 4.60; half-life at 100 µM [12]: 0.934 h; CC50 [13]: 9.05 µM; CC50 [14]: 8.23 µM; Cmax [15]: 761 ng/mL; AUC [16]: 1550 ng·h/mL; half-life [17]: 4 h; Tmax [18]: 2 h; CL/F [19]: 90 mL/min/kg; F [20]: 15%; Cmax [21]: 961 ng/mL; AUC [22]: 3700 ng·h/mL; half-life [23]: 6 h; Tmax [24]: 4 h; bioavailability [25]: 35%
